Reference: paper PMC9544171, “Glucose‐dependent insulinotropic polypeptide receptor antagonist treatment causes a reduction in weight gain in ovariectomised high fat diet‐fed mice” (British Journal of Pharmacology, 2022)
Where a SMILES comes first, the peptide text is derived from it. The star is where a group is joined. C16 diacid = O=C(O)CCCCCCCCCCCCCCC(=O)*

Legend:
[1] = system: Female C57Bl6/J mice; assay: Intraperitoneal glucose tolerance test, inhibition of exogenous GIP; type: in vivo, mouse
Description: To assess the biological activity of mGIPAnt‐1, we performed an intraperitoneal glucose tolerance test. Mice were fasted for 4 h and given either mGIPAnt‐1 ([…]; s.c.) or vehicle at t = −90 min. Group sizes were as follows:‐ Vehicle + Vehicle, n = 10, Vehicle + GIP, n = 12 and mGIPAnt‐1 + GIP, n = 8. Varying group numbers were due to unsuccessful administration of one of the four compounds as confirmed by measurements of plasma concentrations. At t = −10 all mice were given an intraperitoneal (i.p.) injection with dipeptidyl peptidase‐4 (DPP‐4) inhibitor valine pyrrolidide followed by s.c. injection of either 25 nmol·kg^−1 GIP (Synthetic mouse GIP(1‐42) or vehicle. At t = 0 min, mice received an i.p. injection with 0.5‐g·kg^−1 glucose. Blood glucose was measured from the tail vein using a hand‐held glucometer (Accu‐Chek Mobile, Roche, Basel, Switzerland) at t = 0, 10, 30, 45, 60, 120 and 180 min. Retro‐orbital blood samples (50 μl) were taken using EDTA coated glass capillaries (Vitrex, Vasekær, Denmark) at t = 0, 15, 30 and 60, 120 and 180 min and centrifuged at 3500g, 20 min, 4°C. Plasma was transferred into Eppendorf tubes on dry ice and stored at −20°C for later insulin measurements.
To facilitate comparisons of assay outputs (cAMP assays), the results (of duplicate measurements) were normalized, with the response to 10 pM of GIP(1‐42) set as 100%. All ligand concentrations are reported as log‐transformed. The IC50 log values can be found in Figure 1. In Figure 3c, we have subtracted glucose levels from baseline to show the net differences in glucose levels in our different treatment groups.

[2] = biological target: T1, human GIP receptor (Homo sapiens, UniProt P48546); assay: cAMP accumulation, antagonism of human GIP(1‐42) in transfected COS‐7 cells; type: cell-based; details: COS‐7 transiently transfected with human GIPR; 10 min preincubation with antagonist, then human GIP(1‐42) at 50%–80% of Emax for 20 min; HitHunter cAMP; Hill slope −1.0; n = 5 independent experiments; read-out: IC50, inhibition of hGIP‐induced cAMP accumulation, human GIPR
T1 construct: host or cells: COS-7
T1 sequence (P48546 22-466): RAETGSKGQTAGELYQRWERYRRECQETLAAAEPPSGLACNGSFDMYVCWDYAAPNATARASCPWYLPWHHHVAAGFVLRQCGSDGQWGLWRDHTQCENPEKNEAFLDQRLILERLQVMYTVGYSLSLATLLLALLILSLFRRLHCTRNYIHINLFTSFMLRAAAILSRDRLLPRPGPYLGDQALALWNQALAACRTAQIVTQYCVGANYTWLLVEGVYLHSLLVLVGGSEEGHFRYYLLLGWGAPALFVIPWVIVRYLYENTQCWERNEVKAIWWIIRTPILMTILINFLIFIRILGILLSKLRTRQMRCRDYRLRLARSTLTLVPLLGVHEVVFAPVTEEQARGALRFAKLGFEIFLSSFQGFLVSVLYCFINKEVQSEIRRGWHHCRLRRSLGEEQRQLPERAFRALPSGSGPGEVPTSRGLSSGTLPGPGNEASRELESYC
Description: COS‐7 cells were cultured at 10% CO2 and 37°C in Dulbecco's Modified Eagle Medium 1885 supplemented with 10% foetal bovine serum, 2‐mM glutamine, 180‐units ml^−1 penicillin and […] streptomycin. Transient transfection of the cells with either human or mouse GIP receptor was performed using the calcium phosphate precipitation method as previously described (van der Velden et al., [2021]). A second set of cells was transiently transfected with either mouse GLP‐1 or GLP‐2 receptor. Following the day after transfection, the cells were seeded in white 96‐well plates with a density of 35.000 cells per well. The next day the assay was initiated by washing the cells with HEPES buffered saline (HBS) followed by an incubation step with HBS and 1‐mM 3‐isobutyl‐1‐methylxanthine for 30 min at 37°C. For agonist studies, the ligands were then added and incubated for an additional 30 min at 37°C. […] Luminescence was measured by PerkinElmer™ Envision 2014 Multilabel Reader. […]
Results are presented as mean ± SE. Data were analysed with one‐way and two‐way analysis of variance (ANOVA) with Tukey's or Sidak multiple comparisons test and Student's unpaired t tests where appropriate. […] For the in vitro data IC50 values were determined by nonlinear regression using GraphPad Prism 9 (San Diego, California, USA). […]

CC[C@H](C)[C@H](NC(=O)[C@H](CO)NC(=O)[C@H](Cc1ccc(O)cc1)NC(=O)[C@H](CC(=O)O)NC(=O)[C@H](CO)NC(=O)[C@@H](NC(=O)[C@H](Cc1ccccc1)NC(=O)[C@@H](NC(=O)CNC(=O)[C@@H](N)CCC(=O)O)[C@@H](C)O)[C@@H](C)CC)C(=O)N[C@@H](C)C(=O)N[C@@H](CCSC)C(=O)N[C@@H](CC(=O)O)C(=O)N[C@@H](CCCCN)C(=O)N[C@H](C(=O)N[C@@H](CCCCNC(=O)CCCCCCCCCCCCCCC(=O)O)C(=O)N[C@@H](CCC(N)=O)C(=O)N[C@@H](CCC(N)=O)C(=O)N[C@@H](CC(=O)O)C(=O)N[C@@H](Cc1ccccc1)C(=O)N[C@H](C(=O)N[C@@H](CC(N)=O)C(=O)N[C@@H](Cc1c[nH]c2ccccc12)C(=O)N[C@@H](CC(C)C)C(=O)N[C@@H](CC(C)C)C(=O)N[C@@H](C)C(=O)N[C@@H](CCC(N)=O)C(=O)N[C@@H](CCCCN)C(=O)NCC(=O)N[C@@H](CCCCN)C(=O)N[C@@H](CCCCN)C(=O)N[C@@H](CC(N)=O)C(=O)N[C@@H](CC(=O)O)C(=O)N[C@@H](Cc1c[nH]c2ccccc12)C(=O)N[C@@H](CCCCN)C(=O)N[C@@H](Cc1c[nH]cn1)C(=O)N[C@@H](CC(N)=O)C(=O)O)C(C)C)[C@@H](C)CC [mGIPAnt‐1] (H-EGTFISDYSIAMDKIK(C16 diacid)QQDFVNWLLAQKGKKNDWKHN-OH)
fasting (baseline) blood glucose at t = 0 of IPGTT ([1]; mGIPAnt‐1 25 μmol·kg−1 s.c. at t = −90 min, 4 h fasted mice, versus the other two groups): significant decrease in fasting blood glucose levels | baseline‐subtracted glucose curve during IPGTT ([1]; mGIPAnt‐1 25 μmol·kg−1 s.c. t = −90 min, GIP 25 nmol·kg−1 s.c. and val‐pyr t = −10 min, glucose 0.5 g·kg−1 i.p., n = 8–12): did not differ | glucose levels relative to baseline late in IPGTT ([1]; t = 120 and 180 min, same dosing as glucose curve): glucose levels do not drop below baseline | IC50 [2]: 11 nM
